Assay results reported in patent publication US7001905B2, “Substituted diarylamines as MEK inhibitors” (Warner-Lambert Company, priority 2000, dated 2006).

Target: T1, MEK (Homo sapiens, UniProt Q02750)
T1 construct: no tag is given for the 2D mutant
Assay: in vitro MEK assay
Format: biochemical
Experimental: For evaluation of direct MEK activity, 10 μg GST-MEK, is incubated in the presence of absence of test compound with 5 μg of a glutathione S-transferase fusion protein containing p44MAP kinase with a lysine to alanine mutation at position 71 (GST-MAPK-KA). This mutation eliminates kinase activity of MAPK, so only kinase activity attributed to the added MEK remains. Incubations are 15 minutes at 30° C. in a final volume of 50 μL containing 50 mM Tris (pH 7.5), […], 2, μM EGTA, and 10 μM [γ-^32P]ATP. The reaction is stopped by addition of Laemmli SDS sample buffer. Phosphorylated GST-MAPK-KA is resolved by electrophoresis on a 10% polyacrylamide gel. Radioactivity incorporated into GST-MAPK-KA is determined by autoradiography, and subsequent scintillation counting of excised bands.
Alternatively, an artificially activated MEK containing serine to glutamate mutations at positions 218 and 222 (GST-MEK-2E) is used. When these two sites are phosphorylated, MEK activity is increased. Phosphorylation of these sites can be mimicked by mutation of the serine residues to glutamate. For this assay, 5 μg GST-MEK-2E is incubated with 5 μg GST-MAPK-KA for 15 minutes at 30° C. in the same reaction buffer as described above. Reactions are terminated and analyzed as above.

T1 sequence (Q02750 whole entry S218D/S222D, form open): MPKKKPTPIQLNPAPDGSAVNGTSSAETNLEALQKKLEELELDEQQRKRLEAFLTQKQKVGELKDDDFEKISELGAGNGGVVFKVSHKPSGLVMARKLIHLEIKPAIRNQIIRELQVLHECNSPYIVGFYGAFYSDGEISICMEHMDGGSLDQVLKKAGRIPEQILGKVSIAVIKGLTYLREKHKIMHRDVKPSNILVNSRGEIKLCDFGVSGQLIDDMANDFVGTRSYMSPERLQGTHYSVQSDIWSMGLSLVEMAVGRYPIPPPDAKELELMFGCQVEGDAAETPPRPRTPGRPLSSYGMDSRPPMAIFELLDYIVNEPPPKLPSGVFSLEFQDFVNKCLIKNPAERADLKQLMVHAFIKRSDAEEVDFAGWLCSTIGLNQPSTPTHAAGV

Row | SMILES | in vitro MEK assay: % inhibition @ 1 μM [%] | IC50 [µM]
1 | Cc1cc(I)ccc1N1COC(=O)c2cc(C(=O)NCCN3CCCC3)c(F)c(F)c21 [Example 11, 7,8-Difluoro-1-(4-iodo-2-methyl-phenyl)-4-oxo-1,4-dihydro-2H-3,1-benzoxazine-6-carboxylic acid (2-pyrrolidin-1-yl-ethyl)-amide] | 33 | 
2 | Cc1cc(I)ccc1N1COC(=O)c2cc(C(=O)NCCCN3CCCC3=O)c(F)c(F)c21 [Example 12, 7,8-Difluoro-1-(4-iodo-2-methyl-phenyl)-4-oxo-1,4-dihydro-2H-3,1-benzoxazine-6-carboxylic acid [3-(2-oxo-pyrrolidin-1-y)-propyl]-amide] | 21 | 
3 | Cc1cc(I)ccc1N1COC(=O)c2cc(C(=O)N3CCN(C=O)CC3)c(F)c(F)c21 [Example 15, 4-[7,8-Difluoro-1-(4-iodo-2-methyl-phenyl)-4-oxo-1,4-dihydro-2H-3,1-benzoxazine-6-carbonyl]-piperazine-1-carbaldehyde] | 13 | 
4 | Cc1cc(I)ccc1N1COC(=O)c2cc(C(=O)NCCC3CCCN3C)c(F)c(F)c21 (centres unmarked) [Example 19, 7,8-Difluoro-1-(4-iodo-2-methyl-phenyl)-4-oxo-1,4-dihydro-2H-3,1-benzoxazine-6-carboxylic acid [2-(1-methyl-pyrrolidin-2-yl)ethyl]-amide] | 28 | 
5 | Cc1cc(I)ccc1N1COC(=O)c2cc(C(=O)N(C)CCO)c(F)c(F)c21 [Example 20, 7,8-Difluoro-1-(4-iodo-2-methyl-phenyl)-4-oxo-1,4-dihydro-2H-3,1-benzoxazine-6-carboxylic acid (2-hydroxy-ethyl)-methyl-amide] | 41 | 
6 | Cc1cc(I)ccc1N1COC(=O)c2cc(C(=O)Nc3nncs3)c(F)c(F)c21 [Example 21, 7,8-Difluoro-1-(4-iodo-2-methyl-phenyl)-oxo-1,4-dihydro-2H-3,1-benzoxazine-6-carboxylic acid 1,3,4-thiadiazol-2-ylamide] | 31 | 
7 | COCC(C)NC(=O)c1cc2c(c(F)c1F)N(c1ccc(I)cc1C)COC2=O (centres unmarked) [Example 22, 7,8-Difluoro-1-(4-iodo-2-methyl-phenyl)-4-oxo-1,4-dihydro-2H-3,1-benzoxazine-6-carboxylic acid (2-methoxy-1-methyl-ethyl)-amide] | 46 | 
8 | Cc1cc(I)ccc1N1COC(=O)c2cc(C(=O)Nc3nc4c(C)cccc4s3)c(F)c(F)c21 [Example 23, 7,8-Difluoro-1-(4-iodo-2-methyl-phenyl)-4-oxo-1,4-dihydro-2H-3,1-benzoxazine-6-carboxylic acid (4-methyl-benzothiazol-2-yl)-amide] | 26 | 
9 | Cc1csc(NC(=O)c2cc3c(c(F)c2F)N(c2ccc(I)cc2C)COC3=O)n1 [Example 24, ,8-Difluoro-1-(4-iodo-2-methyl-phenyl)-4-oxo-1,4dihydro-2H-3,1-benzoxazine-6-carboxylic acid (4-methyl-thiazol-2-yl)-amide] | 20 | 
10 | CCc1nnc(NC(=O)c2cc3c(c(F)c2F)N(c2ccc(I)cc2C)COC3=O)s1 [Example 26, 7,8-Difluoro-1-(4-iodo-2-methyl-phenyl)-4-oxo-1,4-dihydro-2H-3,1-benzoxazine-6-carboxylic acid (5-ethyl-1,3,4-thiadiazol-2-yl)-amide] | 20 | 
11 | CCOc1ccc2nc(NC(=O)c3cc4c(c(F)c3F)N(c3ccc(I)cc3C)COC4=O)sc2c1 [Example 28, 7,8-Difluoro-1-(4-iodo-2-methyl-phenyl)-4-oxo-1,4-dihydro-2H-3,1-benzoxazine-6-carboxylic acid (6-ethoxy-benzothiazol-2-yl)-amide] | 9 | 
12 | Cc1cc(I)ccc1N1COC(=O)c2cc(C(=O)Nc3nc4ccccc4s3)c(F)c(F)c21 [Example 29, 7,8-Difluoro-1-(4-iodo-2-methyl-phenyl)-4-oxo-1,4-dihydro-2H-3,1-benzoxazine-6-carboxylic acid benzothiazol-2-ylamide] | 21 | 
13 | Cc1cc(I)ccc1N1COC(=O)c2cc(C(=O)Nc3ccccc3CCO)c(F)c(F)c21 [Example 30, 7,8-Difluoro-1-(4-iodo-2-methyl-phenyl)-4-oxo-1,4-dihydro-2H-3,1-benzoxazine-6-carboxylic acid [2-(2-hydroxy-ethyl)-phenyl]-amide] | 55 | 
14 | Cc1cc(I)ccc1N1COC(=O)c2cc(C(=O)Nc3nccs3)c(F)c(F)c21 [Example 31, 7,8-Difluoro-1-(4-iodo-2-methyl-phenul)-4-oxo-1,4-dihydro-2H-3,1-benzoxazine-6-carboxylic acid thiazol-2-ylamide] | 32 | 
15 | Cc1cc(I)ccc1N1COC(=O)c2cc(C(=O)N3CCCCC3CO)c(F)c(F)c21 (centres unmarked) [Example 33, 7,8-Difluoro-6-(2-hydroxymethyl-piperidine-1-carbonyl)-1-(4-iodo-2-methyl-phenyl)-1,2-dihydro-3,1-benzoxazin-4-one] | 79 | 
16 | CCOC(=O)c1c[nH]nc1NC(=O)c1cc2c(c(F)c1F)N(c1ccc(I)cc1C)COC2=O [Example 34, 3-{[7,8-Difluoro-1-(4-iodo-2-methyl-phenyl)-4-oxo-1,4-dihydro-2H-3,1-benzoxazine-6-carbonyl]-amino}-1H-pyrazole-4-carboxylic acid ethyl ester] | 72 | 
17 | CSc1nc(NC(=O)c2cc3c(c(F)c2F)N(c2ccc(I)cc2C)COC3=O)n[nH]1 [Example 35, 7,8-Difluoro-1-(4-iodo-2-methyl-phenyl)-4-oxo-1,4-dihydro-2H-3,1-benzoxazine-6-carboxylic acid (5-methylsulfanyl-1H-1,2,4-triazol-3-yl)-amide] | 76 | 

The remaining lines, values ahead:

Row | in vitro MEK assay: % inhibition @ 1 μM [%] | IC50 [µM] | SMILES
18 | 30 |  | Cc1cc(I)ccc1N1COC(=O)c2cc(C(=O)NC3CCCC[C@@H]3O)c(F)c(F)c21 (stereo in doubt) [Example 60, 7,8-difluoro-1-(4-iodo-2-methyl-phenyl)-4-oxo-1,4-dihydro-2H-3,1-benzoxazine-6-carboxylic acid ((S)-2-hydroxy-cyclohexyl)-amide]
19 |  | 5.8 | Cc1cc(I)ccc1N1COC(=O)c2cc(C(=O)N(C)C)c(F)c(F)c21 [Example 5, 7,8-Difluoro-1-(4-iodo-2-methyl-phenyl)-4-oxo-1,4-dihydro-2H-benzo[d][1,3]oxazine-6-carboxylic acid dimethylamide]
20 | 34 |  | Cc1cc(I)ccc1N1COC(=O)c2cc(C(=O)N3CC[C@@H](O)C3)c(F)c(F)c21 [Example 8, 7,8-Difluoro-6-((R)-3-hydroxy-pyrrolidine-1-carbonyl)-1-(4-iodo-2-methyl-phenyl)-1,2-dihydro-3,1-benzoxazin-4-one]
21 | 93 |  | COC[C@@H]1CCCN1C(=O)c1cc2c(c(F)c1F)N(c1ccc(I)cc1C)COC2=O [Example 9, 7,8-Difluoro-1-(4-iodo-2-methyl-phenyl)-6-((S)-2-methoxymethyl-pyrrolidine-1-carbonyl)-1,2-dihydro-3,1-benzoxazin-4-one]
22 | 44 |  | Cc1cc(I)ccc1N1COC(=O)c2cc(C(=O)NCCN3CCCCC3)c(F)c(F)c21 [Example 10, 7,8-Difluoro-1-(4-iodo-2-methyl-phenyl)-4-oxo-1,4-dihydro-2H-3,1-benzoxazine-6-carboxylic acid (2-piperidin-1-yl-ethyl)-amide]
23 | 23 |  | Cc1cc(I)ccc1N1COC(=O)c2cc(C(=O)NCC3(O)CCCCC3)c(F)c(F)c21 [Example 13, 7,8-Difluoro-1-(4-iodo-2-methyl-phenyl)-4-oxo-1,4-dihydro-2H-3,1-benzoxazine-6-carboxylic acid (1-hydroxy-cyclohexylmethyl)-amide]
24 | 0 |  | Cc1cc(I)ccc1N1COC(=O)c2cc(C(=O)N(C)C3CCN(C)CC3)c(F)c(F)c21 [Example 16]
25 | 78 |  | Cc1cc(I)ccc1N1COC(=O)c2cc(C(=O)N3CCN(C)CC3)c(F)c(F)c21 [Example 17]
26 | 43 |  | Cc1cc(I)ccc1N1COC(=O)c2cc(C(=O)NCCOCCO)c(F)c(F)c21 [Example 18, 7,8-Difluoro-1-(4-iodo-2-methyl-phenyl)-4-1,4-dihydro-2H-3,1-benzoxazine-6-carboxylic acid [2-(2-hydroxy-ethoxy)-ethyl]-amide]
27 | 5 |  | CCSc1nnc(NC(=O)c2cc3c(c(F)c2F)N(c2ccc(I)cc2C)COC3=O)s1 [Example 25, 7,8-Difluoro-1-(4-iodo-2-methyl-phenyl)-4-oxo-1,4-dihydro-2H-3,1-benzoxazine-6-carboxylic acid (5-ethylsulfanyl-1,3,4-thiadiazol-2-yl)-amide]
28 | 27 |  | Cc1cc(I)ccc1N1COC(=O)c2cc(C(=O)Nc3nnc(S)s3)c(F)c(F)c21 [Example 27, 7,8-Difluoro-1-(4-iodo-2-methyl-phenyl)-4-oxo-1,4-dihydro-2H-3,1-benzoxazine-6-carboxylic acid (5-mercapto-1,3,4-thiadiazol-2-yl)-amide]
29 | 76 |  | Cc1cc(I)ccc1N1COC(=O)c2cc(C(=O)N3CCCCC3CCO)c(F)c(F)c21 (centres unmarked) [Example 32, 7,8-Difluoro-6-[2-(2-hydroxy-ethyl)-piperidine-1-carbonyl]-1-(4-iodo-2-methyl-phenyl)-1,2-dihydro-3,1-benzoxazin-4-one]
